Drawing on patent US12528816B2, “Substituted imidazo [1,2-b] pyridazines and [1, 2, 4] triazolo [ 4,3-b] pyridazines as camkii inhibitors” (Cardurion Pharmaceuticals, INC., priority 2020, dated 2026), this text covers IC50 for 55 compounds.

This assay concerns the target T1, human CaMKIIδ (Homo sapiens, UniProt Q13557).
T1 construct: Full-length, glutathione-S-transferase(GST)-tagged, human CaMKIIδ was purchased from Carna Biosciences; purchased Carna Biosciences (CaMKIIδ); Wako Pure Chemical Industries (calmodulin) 02-111
Briefly: Evaluation of in vitro CaMKII inhibitory activity (binding assay, TR-FRET). Conditions: human CaMKIIδ. The procedure, abridged: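 Inhibitors, in eight concentrations of 4-fold dilution, were incubated 1 h at room temperature with a protein–fluorescent probe premix preformed 30 min on ice, containing calmodulin and terbium anti-GST antibody. Displacement read by TR-FRET in duplicate; IC50 by logistic fitting.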

The mark [1] stands for this setting: TR-FRET binding assay, class symbols A/B/C, read-out: Act (CaMKII inhibitory activity, binding assay).
The mark [2] stands for this setting: in vitro CaMKII inhibitory activity (binding assay), read-out: Act.

The structures appear in SMILES notation. Where two headings read alike, the source gives them in different places.

For the compound `C[C@@H](Cn1cnnn1)Oc1cc(-c2ccn3ncc(-c4cnn(CCN5CCOCC5)c4)c3n2)ccc1F` [compound 145], under setting [1], the IC50 fell in the range of 10 to 100 nM.
Take `C[C@@H](Cn1cnnn1)Oc1cccc(-c2ccc3ncc(-c4cc(=O)n(C)cc4C#N)n3n2)n1` [compound 465]: the IC50 under setting [2] was less than 10 nM.
Turning to `COc1cnc(-c2cnc3ccc(-c4cccc(O[C@@H](C)Cn5cnnn5)c4)nn23)c(C#N)c1` [compound 281], under setting [2], the IC50 was less than 10 nM.
`COc1cnc(C#N)c(-c2cnc3ccc(-c4cccc(O[C@@H](C)Cn5cnnn5)c4)nn23)n1` [compound 285]: the IC50 under setting [2] is less than 10 nM.
Consider `CC[C@@H](Cn1cnnn1)Oc1cc(-c2ccc3ncc(-c4nccc(OC)c4C#N)n3n2)ccc1F` [compound 476], for which, under setting [1], the IC50 was less than 10 nM.
Same read-out and setting: under `C[C@@H](Cn1cnnn1)Oc1cc(-c2ccc3ncn(-c4cccn(C)c4=O)c3n2)ccc1F` [compound 176] stands 10 to 100 nM.
As to `[2H]C([2H])([2H])Oc1ccnc(-c2cnc3ccc(-c4ccc(F)c(O[C@@H](C)Cn5cnnn5)c4)nn23)c1C#N` [Example 473, 2-[6-(4-fluoro-3-{[(2S)-1-(1H-tetrazol-1-yl)propan-2-yl]oxy}phenyl)imidazo[1,2-b]pyridazin-3-yl]-4-(methoxy-d3)pyridine-3-carbonitrile], the IC50 under setting [1] is less than 10 nM.
As for `C[C@@H](Cn1cnnn1)Oc1cccc(-c2ccn3ncc(-c4cccc(C(=O)NCCN5CCOCC5)c4)c3n2)c1` [compound 67], the IC50 under setting [1] was less than 10 nM.
Still for that read-out and setting: under `C[C@@H](Cn1cnnn1)Oc1cc(-c2ccc3ncc(-c4cccc(OCC(=O)O)c4C#N)n3n2)ccc1F` [compound 216] stands less than 10 nM.
For the compound `C[C@@H](Cn1cnnn1)Oc1cccc(-c2ccc3ncc(-c4ncccc4C#N)n3n2)c1` [Example 271, 2-[6-(3-{[(2S)-1-(1H-tetrazol-1-yl)propan-2-yl]oxy}phenyl)imidazo[1,2-b]pyridazin-3-yl]pyridine-3-carbonitrile], the IC50 under setting [2] is less than 10 nM.
Regarding `COc1c(C(=O)NCCN2CCOCC2)cccc1-c1cnn2ccc(-c3ccc(F)c(O[C@@H](C)Cn4cnnn4)c3)nc12` [compound 152], the IC50 under setting [1] was less than 10 nM.
On to `COCCCn1ncc(-c2cnc3ccc(-c4ccc(F)c(O[C@@H](C)Cn5cnnn5)c4)nn23)c1C#N` [compound 223, 4-[6-(4-fluoro-3-{[(2S)-1-(1H-tetrazol-1-yl)propan-2-yl]oxy}phenyl)imidazo[1,2-b]pyridazin-3-yl]-1-(3-methoxypropyl)-1H-pyrazole-5-carbonitrile], for which the IC50 under setting [1] was less than 10 nM.
Turning to `C[C@@H](Cn1cnnn1)Oc1cccc(-c2ccc3ncc(-c4[nH]c(=O)ccc4C#N)n3n2)c1` [compound 364], the IC50 under setting [2] is less than 10 nM.
Regarding `C[C@@H](Cn1cnnn1)Oc1cc(-c2ccc3ncc(-c4cccc(OCCCN5CCOCC5)c4C#N)n3n2)ccc1F` [compound 171], the IC50 under setting [1] was less than 10 nM.
Turning to `C[C@@H](Cn1cnnn1)Oc1cc(-c2ccc3ncn(-c4cn[nH]c4)c3n2)ccc1F` [compound 119], under setting [1], the IC50 is less than 10 nM.
With `C[C@@H](Cn1cnnn1)Oc1cccc(-c2ccn3ncc(-c4cccc(C(=O)N5CCOCC5)c4)c3n2)c1` [compound 71], the IC50 under setting [1] was 10 to 100 nM.
For `C[C@@H](Cn1cnnn1)Oc1cc(-c2ccc3ncc(-c4ccnc(N)c4C#N)n3n2)ccc1F` [compound 233], the IC50 under setting [2] was less than 10 nM.
As to `CCN(CC)CCNC(=O)c1cccc(-n2cnc3ccc(-c4ccc(F)c(O[C@@H](C)Cn5cnnn5)c4)nc32)c1` [compound 12], the IC50 under setting [1] was less than 10 nM.
Regarding `C[C@@H](Cn1cnnn1)Oc1cc(-c2ccn3ncc(-c4ccccc4N4CCOCC4)c3n2)ccc1F` [compound 48], the IC50 under setting [1] lay within 10 to 100 nM.
Still for that read-out and setting: the figure for `C[C@@H](Cn1cnnn1)Oc1cc(-c2ccc3ncn(-c4cccc5c4C(=O)N(C)C5=O)c3n2)ccc1F` [compound 193] is more than 100 nM; for `COCCOc1ccccc1-c1cnn2ccc(-c3ccc(F)c(O[C@@H](C)Cn4cnnn4)c3)nc12` [compound 43] it is less than 10 nM.
As for `C[C@@H](Cn1cnnn1)Oc1cccc(-c2ccc3ncc(-c4cc(F)cn(CC(F)F)c4=O)n3n2)c1` [compound 337], the IC50 under setting [2] was less than 10 nM.
For `C[C@@H](Cn1cnnn1)Oc1cc(-c2ccc3ncc(-c4cnn(CCCO)c4C#N)n3n2)ccc1F` [compound 225], under setting [1], the IC50 was less than 10 nM.
Take `C[C@@H](Cn1cnnn1)Oc1cccc(-c2ccn3ncc(-c4cc(F)ccc4C#N)c3n2)n1` [Example 416, 4-fluoro-2-[5-(6-{[(2S)-1-(1H-tetrazol-1-yl)propan-2-yl]oxy}pyridin-2-yl)pyrazolo[1,5-a]pyrimidin-3-yl]benzonitrile]: under setting [2], the IC50 is less than 10 nM.
On to `C[C@@H](Cn1cnnn1)Oc1cc(-c2ccc3ncc(-c4cccs4)n3n2)ccc1F` [compound 60], for which the IC50 under setting [1] was less than 10 nM.
Turning to `C[C@@H](Cn1cnnn1)Nc1ccnc(-c2ccc3ncc(-c4cc(F)ccc4C#N)n3n2)c1` [compound 483], under setting [1], the IC50 was less than 10 nM.
As for `C[C@@H](Cn1cnnn1)Oc1cc(-c2ccc3ncc(-c4cccs4)n3c2)ccc1F` [compound 17], the IC50 under setting [1] was in the range of 10 to 100 nM.
On the same count and under the same terms, the figure for `C[C@@H](Cn1cnnn1)Oc1cccc(-c2ccn3ncc(-c4cccc(C(=O)Nc5ccccn5)c4)c3n2)c1` [compound 83] is less than 10 nM.
As for `C[C@@H](Cn1cnnn1)Oc1cccc(-c2ccc3ncn(-c4cccc(Cl)c4C#N)c3n2)n1` [compound 453], the IC50 under setting [2] lay within 10 to 100 nM.
The same measure, in the same setting: the figure for `C[C@@H](Cn1cnnn1)Oc1cccc(-c2ccc3ncn(-c4cc(OC(F)F)ccc4C#N)c3n2)n1` [compound 385] is more than 100 nM; for `C[C@@H](Cn1cnnn1)Oc1nc(-c2ccc3ncc(-c4cc(F)ccc4C#N)n3n2)ccc1F` [compound 449] it is less than 10 nM; for `CCOc1ccnc(-c2cnc3ccc(-c4cccc(O[C@@H](C)Cn5cnnn5)c4)nn23)c1C#N` [compound 366] it is less than 10 nM.
With `C[C@@H](Cn1cnnn1)Oc1cc(-c2ccn3ncc(-c4ccccc4F)c3n2)ccc1F` [compound 52], under setting [1], the IC50 was less than 10 nM.
In the case of `COc1cc(OC)c(C#N)c(-n2cnc3ccc(-c4cccc(O[C@@H](C)Cn5cnnn5)n4)nc32)c1` [compound 440], the IC50 under setting [2] lay within 10 to 100 nM.
Same read-out and setting: under `C[C@@H](Cn1cnnn1)Oc1ccnc(-c2ccc3ncc(-c4cc(F)ccc4C#N)n3n2)c1` [Example 311, 4-fluoro-2-[6-(4-{[(2S)-1-(1H-tetrazol-1-yl)propan-2-yl]oxy}pyridin-2-yl)imidazo[1,2-b]pyridazin-3-yl]benzonitrile] stands less than 10 nM; under `COc1cc(OC)c(C#N)c(-c2cnc3ccc(-c4cccc(O[C@@H](C)Cn5cnnn5)n4)nn23)c1` [compound 456], less than 10 nM.
`CNC(=O)c1ccc(-c2cnn3ccc(-c4ccc(F)c(O[C@@H](C)Cn5cnnn5)c4)nc23)cc1` [compound 37]: the IC50 under setting [1] is less than 10 nM.
In the case of `C[C@@H](Cn1cnnn1)Oc1cc(-c2ccc3ncn(-c4cccc(C(=O)O)c4)c3n2)ccc1F` [compound 62], the IC50 under setting [1] lay within 10 to 100 nM.
Take `COC(=O)c1ccnc(-n2cnc3ccc(-c4ccc(F)c(O[C@@H](C)Cn5cnnn5)c4)nc32)c1` [compound 14]: the IC50 under setting [1] is less than 10 nM.
The same measure, in the same setting: under `C[C@@H](Cn1cnnn1)Oc1cc(-c2ccn3ncc(-c4ccc[nH]c4=O)c3n2)ccc1F` [compound 167] stands less than 10 nM.
Regarding `C[C@@H](Cn1cnnn1)Oc1cccc(-c2ccc3ncn(-c4cc(C(F)F)ccc4C#N)c3n2)c1` [Example 383, 4-(difluoromethyl)-2-[5-(3-{[(2S)-1-(1H-tetrazol-1-yl)propan-2-yl]oxy}phenyl)-3H-imidazo[4,5-b]pyridin-3-yl]benzonitrile], the IC50 under setting [2] was less than 10 nM.
Regarding `COc1cc(F)cc(-c2cnc3ccc(-c4cccc(N[C@@H](C)Cn5cnnn5)n4)nn23)c1C#N` [compound 480], under setting [1], the IC50 is less than 10 nM.
For the compound `CNC(=O)c1sccc1-c1cnc2ccc(-c3ccc(F)c(O[C@@H](C)Cn4cnnn4)c3)nn12` [compound 245], the IC50 under setting [2] was 10 to 100 nM.
On to `C[C@@H](Cn1cnnn1)Oc1cc(-c2ccc3ncc(-c4cccnc4C#N)n3n2)ccc1F` [compound 248], for which the IC50 under setting [2] was less than 10 nM.
As to `C[C@@H](Cn1cnnn1)Oc1cncc(-c2ccc3ncn(-c4cc(F)ccc4C#N)c3n2)c1` [compound 316], the IC50 under setting [2] is less than 10 nM.
As for `C[C@@H](Cn1cnnn1)Oc1cc(-c2ccc3ncc(-c4cccc(OCC5CCC(=O)N5)c4C#N)n3n2)ccc1F` (stereo partly shown) [compound 200], the IC50 under setting [1] is less than 10 nM.
On the same count and under the same terms, under `C[C@@H](Cn1cnnn1)Oc1cccc(-c2ccn3ncc(-c4cccc(C(=O)NCCCCO)c4)c3n2)c1` [compound 79] stands less than 10 nM; under `C[C@@H](Cn1cnnn1)Oc1cc(-c2ccn3ncc(-c4cccc(C(F)(F)F)c4)c3n2)ccc1F` [compound 130], 10 to 100 nM.
Turning to `CC(=O)NCCCNC(=O)c1cccc(-c2cnn3ccc(-c4cccc(O[C@@H](C)Cn5cnnn5)c4)nc23)c1` [compound 102], the IC50 under setting [1] was less than 10 nM.
Consider `C[C@@H](Cn1cnnn1)Oc1cc(F)cc(-c2ccc3ncc(-c4ncccc4C#N)n3n2)c1` [compound 296], for which the IC50 under setting [2] is less than 10 nM.
Same read-out and setting: the figure for `C[C@@H](Cn1cnnn1)Oc1cccc(-c2ccc3ncc(-c4ccccc4CO)n3n2)c1` [compound 308] is less than 10 nM.
The same measure, in the same setting: under `C[C@@H](Cn1cnnn1)Oc1cccc(-c2ccc3ncn(-c4cc(C(F)F)ccc4C#N)c3n2)n1` [compound 382] stands more than 100 nM.
For the compound `C[C@@H](Cn1cnnn1)Oc1cc(-c2ccn3ncc(-c4cccc(OC(F)(F)F)c4)c3n2)ccc1F` [compound 46], under setting [1], the IC50 was 10 to 100 nM.
Same read-out and setting: the figure for `C[C@@H](Cn1cnnn1)Oc1cc(-c2ccc3ncc(-c4cccc(OCC5CCNC5=O)c4C#N)n3n2)ccc1F` (stereo partly shown) [compound 198] is less than 10 nM.
`C[C@@H](Cn1cnnn1)Oc1cccc(-c2ccc3ncc(-c4ccc[nH]c4=O)n3n2)c1` [compound 252, 3-[6-(3-{[(2S)-1-(1H-tetrazol-1-yl)propan-2-yl]oxy}phenyl)imidazo[1,2-b]pyridazin-3-yl]-1,2-dihydropyridin-2-one]: the IC50 under setting [2] is less than 10 nM.
